# Assay results published in PubChem BioAssay (NCI).
#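 Where inhibition never reached the appropriate level, the endpoint shown equals the highest concentration tested. Otherwise, values were interpolated linearly from a five-concentration, 48-hour dose response in 96-well plates. TGI is the concentration that stops growth completely.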 Where a SMILES comes first, the peptide text is derived from it. The star is where a group is joined. Boc = CC(C)(C)OC(=O)*; OBn = c1ccc(CO*)cc1
# Experiments:
# Assay in all cases: NCI anticancer screen, dose series, 48 h
# K-562 leukemia = tested on: K-562 leukemia
# MDA-N = tested on: MDA-N
# U251 CNS = tested on: U251 CNS
# MDA-MB-231 breast = tested on: MDA-MB-231 breast
# UACC-257 melanoma = tested on: UACC-257 melanoma
# IGROV1 ovarian = tested on: IGROV1 ovarian
# HOP-62 NSCLC = tested on: HOP-62 NSCLC
# SF-539 CNS = tested on: SF-539 CNS
# MCF7 breast = tested on: MCF7 breast
# UACC-62 melanoma = tested on: UACC-62 melanoma
SMILES,TGI (K-562 leukemia),TGI (MDA-N),TGI (U251 CNS),TGI (MDA-MB-231 breast),TGI (UACC-257 melanoma),TGI (IGROV1 ovarian),TGI (HOP-62 NSCLC),TGI (SF-539 CNS),TGI (MCF7 breast),TGI (UACC-62 melanoma)
O=P1(Oc2ccccc2)NCc2ncccc2O1 (stereo not given),> 100 µM,> 100 µM,> 100 µM,> 100 µM,> 100 µM,> 100 µM,> 100 µM,> 100 µM,> 100 µM,> 100 µM
CC(=O)c1ccccc1NS(=O)(=O)c1ccc2nc(C)n(NS(=O)(=O)c3ccccc3C(C)=O)c(=O)c2c1,> 100 µM,> 100 µM,> 100 µM,> 100 µM,> 100 µM,> 100 µM,> 100 µM,> 100 µM,> 100 µM,> 100 µM
Brc1ccc(-c2cc(-c3ccc4c(c3)OCO4)c(-c3cccs3)n2Cc2ccccc2)cc1,> 100 µM,> 100 µM,> 100 µM,> 100 µM,> 100 µM,> 100 µM,> 100 µM,> 100 µM,> 100 µM,> 100 µM
CCOC(=O)C1=C(C)NC(C)=C(C(=O)OCC)C1c1ccc(C)cc1,> 100 µM,> 100 µM,> 100 µM,84.3 µM,> 100 µM,> 100 µM,> 100 µM,91.4 µM,47.3 µM,> 100 µM
S=C(c1c[nH]c2ccccc12)N1CCCCC1,> 100 µM,> 100 µM,> 100 µM,> 100 µM,> 100 µM,> 100 µM,> 100 µM,> 100 µM,> 100 µM,> 100 µM
Oc1ccccc1-c1nn2c(CCCCCCCCc3nnc4sc(-c5ccccc5O)nn34)nnc2s1,> 100 µM,> 100 µM,> 100 µM,> 100 µM,> 100 µM,> 100 µM,> 92.2 µM,> 66.6 µM,> 100 µM,> 100 µM
Cc1[nH]c(=O)nc(N(CCO)/N=C/c2ccc(Cl)cc2)c1C(=O)Nc1ccc(Cl)cc1,> 100 µM,> 100 µM,69.2 µM,> 100 µM,> 100 µM,> 100 µM,> 100 µM,> 100 µM,> 100 µM,> 100 µM
O[C@H]1[C@H](O)[C@@H](Cn2nnc(-c3ccccc3)c2-c2ccccc2)OCO[C@@H]1Cn1nnc(-c2ccccc2)c1-c1ccccc1,> 100 µM,9.97 µM,> 41 µM,16.4 µM,15.1 µM,14.2 µM,29 µM,10.8 µM,11.5 µM,11.7 µM
Cc1cc(C)c2c(=O)cc(-c3ccc4ccccc4c3)[nH]c2n1,4.26 µM,17.2 µM,65.7 µM,> 100 µM,> 59.6 µM,99.7 µM,> 93.8 µM,> 93.4 µM,> 100 µM,> 100 µM
C[N+](C)(C)C(C1=CCCC1=O)c1ccccc1 (stereo not given),> 100 µM,> 100 µM,42.7 µM,75.5 µM,64.4 µM,> 100 µM,80.2 µM,> 100 µM,56.7 µM,38.8 µM
C=CCn1c(-c2ccc(Cl)cc2Cl)csc1=Nc1c(C)n(C)n(-c2ccccc2)c1=O,8.38 µM,22.4 µM,25.1 µM,30 µM,19.2 µM,31.5 µM,29.7 µM,30.4 µM,25.4 µM,22.5 µM
NC(N)=NS(=O)(=O)c1ccc(NC(=O)c2ccc3nc4ccccc4c(N)c3c2)cc1,> 100 µM,> 100 µM,> 100 µM,> 100 µM,> 100 µM,> 100 µM,> 100 µM,> 100 µM,> 100 µM,> 100 µM
CC(C)CC(NC(=O)C(Cc1ccccc1)NC(=O)C(Cc1ccccc1)NC(=O)OC(C)(C)C)C(=O)OCc1ccccc1 (stereo not drawn) (Boc-Phe-Phe-Leu-OBn; configuration not given here),> 100 µM,> 100 µM,> 100 µM,> 100 µM,> 100 µM,> 100 µM,> 100 µM,> 100 µM,> 100 µM,> 100 µM
COc1cc(Nc2nc3ccccc3nc2C(C)C)cc(OC)c1OC,> 100 µM,> 100 µM,> 100 µM,> 100 µM,> 100 µM,> 100 µM,> 100 µM,> 100 µM,> 100 µM,> 100 µM
Cc1cccc(C(=O)O)c1CC1NCCC2c3ccccc3NC12 (stereo not given),> 100 µM,> 100 µM,> 100 µM,> 100 µM,> 100 µM,> 100 µM,> 100 µM,> 100 µM,> 100 µM,> 100 µM
COc1ccc(N(C(=O)NCCO)c2ccccc2)cc1,> 100 µM,> 100 µM,> 100 µM,> 100 µM,> 100 µM,> 100 µM,> 100 µM,> 100 µM,> 100 µM,> 100 µM

SMILES,TGI (K-562 leukemia),TGI (MDA-N),TGI (U251 CNS),TGI (MDA-MB-231 breast),TGI (UACC-257 melanoma),TGI (IGROV1 ovarian),TGI (HOP-62 NSCLC),TGI (SF-539 CNS),TGI (MCF7 breast),TGI (UACC-62 melanoma)
Cc1ccc(C)c(COCCOCn2c(=O)[nH]c(=O)c3cc(Br)ccc32)c1,> 100 µM,> 100 µM,> 100 µM,> 100 µM,> 100 µM,> 100 µM,> 100 µM,> 100 µM,> 100 µM,> 100 µM
O=C(CCc1ccc(O)cc1)NCCCNC(=O)CCc1ccc(O)cc1,> 100 µM,> 100 µM,> 100 µM,> 100 µM,> 100 µM,> 100 µM,> 100 µM,> 100 µM,> 100 µM,> 100 µM
CS/C=C\C(=O)O[C@H]1C[C@@H]2[C@@H](O)c3occ(C)c3C[C@]2(C)[C@@H](C)C1,47 µM,47.2 µM,7.93 µM,41.7 µM,30.5 µM,40.3 µM,40.9 µM,37.7 µM,57.4 µM,37.9 µM
Cc1nnc([C@@]2(C)CC[C@H]3[C@@H](CCC4=CC(=O)CC[C@@]43C)[C@@H]2CC#N)o1,> 100 µM,> 100 µM,> 100 µM,> 100 µM,> 100 µM,> 100 µM,> 100 µM,> 100 µM,> 100 µM,> 100 µM
Nc1c2c(nc3ccccc13)CCCc1ccccc1-2,> 100 µM,17.2 µM,24.7 µM,19.8 µM,27.1 µM,26.3 µM,28 µM,25.9 µM,29.2 µM,20.8 µM
CC[C@H]1C=CCC[C@@]2(C[C@@H]3CC[C@@H]4[C@H](C(=O)OCCCCCCCCCCCCCCCC(=O)N(CCCNC(C)=O)C[C@H](CCNC(C)=O)OC(C)=O)[C@]5(CCC[C@@H](C)O5)NC(=[N+]34)N2)O1,3.81 µM,1.36 µM,1.11 µM,1.93 µM,0.291 µM,1.9 µM,1.84 µM,1.59 µM,1.37 µM,0.246 µM
Nc1ccc(OCCCc2c(-c3ccccc3)nc(N)[nH]c2=O)cc1,> 100 µM,> 100 µM,> 100 µM,> 100 µM,> 100 µM,> 100 µM,> 100 µM,> 100 µM,> 100 µM,43 µM
O=[p+]1c2ccccc2[nH]c2ccccc21,> 100 µM,> 100 µM,> 100 µM,> 100 µM,> 100 µM,> 100 µM,> 100 µM,> 100 µM,> 100 µM,> 100 µM
CNc1nc2c(C)ccc3[nH]c(N(C)C)nc3c-2n1,45 µM,> 100 µM,> 100 µM,> 100 µM,> 100 µM,> 100 µM,> 100 µM,64.5 µM,> 100 µM,> 100 µM
CC(C)(O)CCc1ccc(O)c2c(=O)c3c(O)c4c(cc3oc12)O[C@H]1OC=C[C@@]41O,> 100 µM,0.0142 µM,0.0396 µM,> 100 µM,0.291 µM,0.252 µM,2.43 µM,6.76 µM,< 0.01 µM,< 0.01 µM
NC(=O)SCC(=O)Nc1ccc2ncccc2c1,> 100 µM,> 100 µM,48.7 µM,> 100 µM,> 100 µM,> 100 µM,> 100 µM,> 100 µM,> 100 µM,> 100 µM
CCn1c(=O)c2c3cc(OC(C)=O)ccc3oc2c2ccc(OC(C)=O)cc21,> 100 µM,> 100 µM,> 100 µM,> 100 µM,> 100 µM,> 100 µM,> 100 µM,94.3 µM,> 100 µM,> 100 µM
COc1ccc(-c2cc(-c3ccccc3)nc3c2CC(=O)Nc2ccccc2-3)cc1OC,> 100 µM,> 100 µM,> 100 µM,6.21 µM,> 100 µM,> 100 µM,18.2 µM,> 46.1 µM,> 43.1 µM,> 100 µM
NC(=O)C1CCCN1C(=O)N(CCCl)N=O (stereo not given),> 100 µM,> 100 µM,> 100 µM,> 100 µM,> 100 µM,> 100 µM,> 100 µM,> 100 µM,> 100 µM,> 100 µM
COCn1c(C)c(C)c2c(=O)oc(C)nc21,> 100 µM,> 100 µM,> 100 µM,> 100 µM,> 100 µM,> 100 µM,> 100 µM,> 100 µM,> 100 µM,> 100 µM
